Data on two molecules can be found in patent US20070169214A1, “Thiol methyltransferase-based selection” (priority 2004, published 2007).

One assay relates to E. coli M15 cells. The assay can be described thus: Bacterial growth (OD600) in the presence of toxin. The format is cell-based, Escherichia coli. As to conditions: for growth of non-transgenic bacteria: E. coli M15 with empty vector pQE30, 4 h at 37° C.; for ΔOD600 (growth of transgenic bacteria): E. coli M15 with pQETMT1, 4 h at 37° C. The method, then: E. coli M15 cells transformed with the empty vector pQE30 (referred to as non-transgenic bacteria) or pQETMT1 (hereafter referred to as transgenic bacteria) were grown as 15 ml starter cultures in LB medium supplemented with 100 μg/ml ampicillin and […] kanamycin at 37° C. for 16 h. 5 ml of each culture was then transferred to 100 ml of fresh LB medium containing the same concentrations of both antibiotics and cultures grown to an OD600 of 0.6. […] In the culture tubes, expression of the recombinant TMT protein was induced by adding […] (IPTG) to a final concentration of 1 mM. All the culture tubes were incubated at 37° C. for another 4 h. Bacterial growth at different toxin concentrations was measured by optical density (OD600) and the difference in OD600 (ΔOD600) was calculated.

The next assay relates to potato roots. The assay can be described thus: Potato root growth on MS with toxin (WinRhizo root length). Set-up: species or system Solanum tuberosum cv Russet Burbank. The following applies: increasing toxin concentration, 10 days, transgenic and non-transgenic roots. From the text: pBluescript plasmid harboring the full-length TMT1clone (SEQ ID NO:1) was linearized with BamHI and KpnI and cloned in a sense orientation into the binary pBin19 double enhancer vector between the 35S promoter of CaMV and the Nos terminator. Agrobacterium rhizogenes wild-type strain A4 was then transformed either with the pBin/TMT vector or pBin vector alone. Freshly cut Solanum tuberosum cv Russet Burbank petioles were decontaminated by soaking in diluted commercial bleach (10%) containing 0.01% Tween-20™ for 10 min, followed by three 10 min washes in sterile water. The petioles were then cut into 4 cm segments and cultured apical side down in MS medium containing 0.4% phytagel™. The upper parts of the petioles were infected with freshly streaked A. rhizogenes A4 carrying the pBin19 vector alone (non-transgenic roots) or with the pBin vector with the TMT insert (transgenic roots). Roots started appearing after about 10 days. […]
Every 2 weeks, the carbenicillin concentration was halved until no carbenicillin was present in the medium. All roots were then screened for TMT activity using an in vivo technique where KI in solution (100 mM) was added to the roots and emission of CH3I was detected using gas chromatography. […] The roots were placed in MS containing 0.2% phytagel and allowed to grow for 10 days after which the growth was measured using WinRhizo™ software.

In the next assay the test system is HEK 293 cells. In words: Growth of transfected HEK 293 cells monitored by GFP fluorescence. As to conditions: 0-200 mM toxin, 24 h. The format is cell-based. The method, then:
A TMT insert was generated by linearizing pBluescript vector harboring the full-length clone (described in Example 2) with SpeI and ApaI and inserted into the pTracer™-SV40 mammalian expression plasmid. This vector contains a cycle-3-GFP, an improved Green Fluorescent Protein gene fused to Zeocin™ resistance gene for selection in mammalian cells. Transfection of HEK 293 cells was carried out in 24 well plates using Fugene 6™ Transfection reagent (Roche Molecular Biochemicals). A ratio of DNA to Fugene of 1:6 and 200 or 400 ng of DNA were used. Each well was seeded with 2×10^5 cells grown in a monolayer for 16 h in […] DMEM containing 10% serum. Transfection was performed on 90% confluent cells. Prior to transfection, the medium containing serum was removed and replaced with 150 μl of serum-free medium in each well. A DNA/Fugene 6 mixture was incubated for 15 min at room temperature and 100 μl of this mixture was added drop-wise to each well while cells were gently rocked. After a 3 hour incubation, another 250 μl DMEM containing 2× serum was added to each well and cells were further incubated for 48 h. […] These cells were allowed to grow for another 24 h. Growth was monitored by fluorescent microscopy to detect the presence of GFP. […] The emission of CH3I was then monitored by gas chromatography.

The subject of a further assay is tobacco plants. The assay can be described thus: In vivo TMT activity of tobacco plants grown on SCN. The following applies: transgenic tobacco plant. The method, then:
(§1) In vivo assay: This assay was used in the studies described herein. In vivo TMT activity is measured in 10 leaf disks placed on a Whatman filter paper (4.25 cm) in a 50-ml Erlenmeyer flask, and incubated with 2 ml of a 100 mM KI solution (Saini et al., [1995] Plant, Cell and Environment, 18:1027-1033). The flask is sealed with a rubber stopper and CH3I formed in the headspace is quantified after 2 h by gas chromatography. Assays for alternative substrates or inhibitors of the enzyme contained 20 mol m^−3 KI (the known substrate) and a range of concentrations of the compound to be tested. In the assay for HS^− methylation, KI in the above assay is replaced with 20 mM (NH4)2S.
With reference to FIG. 34, the effect of SCN on in vivo TMT activity of transgenic/non-transgenic tobacco plants was analysed. […] As the concentration of SCN increased to 5 mM, the transgenic plant was able to methylate the SCN but beyond 5 mM, the activity decreased as higher SCN levels appear to confer some toxicity to the plant.

A further assay relates to A. thaliana plants. The assay can be described thus: In vivo TMT activity in 3 Arabidopsis phenotypes grown on SCN. The protocol: as §1
With reference to FIG. 36, the effect of SCN on TMT activity in 3 Arabidopsis phenotypes was analysed. […] As the concentration of SCN increased the TT and Tt plants were less and less able to methylate the SCN. TT plants could methylate the SCN up to 10 mM while the Tt had no activity after 2.5 mM, as it appears that higher levels of SCN may have some toxicity to the heterozygote plant.

Take `N#C[S-].[Na+]` [NaSCN]: in the assay on E. coli M15 cells (200 mM NaSCN), the “growth of non-transgenic bacteria” value is “halted non-transgenic bacterial growth” and the “ΔOD600 (growth of transgenic bacteria)” value is listed as 0.377. Besides, in the assay on potato roots, the “root growth (root length)” value was “growth of both transgenic and non-transgenic roots was affected”. Also, the “GFP fluorescence (cell viability), transgenic vs non-transgenic cells” value with HEK 293 cells was “more fluorescence in the transgenic than in the non-transgenic cells”. Moreover, the “SCN concentration beyond which in vivo TMT activity decreased” value in the assay with tobacco plants is reported as above 5 mM. Moreover, the “SCN concentration up to which plants could methylate SCN (TMT activity)” value in the assay on A. thaliana plants (TT (wild type) plants) is on record as “up to 10 mM”. The “SCN concentration after which there was no TMT activity” value in the assay with A. thaliana plants (Tt (heterozygous) plants) is reported as above 2.5 mM.
With `I` [KI], in the assay with E. coli M15 cells (250 mM KI), the “growth of non-transgenic bacteria” value is recorded as “growth of the non-transgenic bacteria was halted” and the “ΔOD600 (growth of transgenic bacteria)” value is recorded as 0.547. Besides, the “GFP fluorescence (cell viability), transgenic vs non-transgenic cells” value with HEK 293 cells is “more fluorescence in the transgenic than in the non-transgenic cells”.
